Test results published in patent publication US20210235699A1, “Adjuvant Compositions Comprising a Tetramethylguanidine and a 4-Isothiazolin-3-One” (Lonza, LLC, priority 2018, published 2021).

How the values were obtained:
[1] = tested on: combined bacterial test inoculum: Acinetobacter calcoaceticus, Escherichia coli, Pseudomonas aeruginosa, Enterobacter cloacae; assay: Bacterial challenge test (ASTM D2574-97, modified) in standard water based interior paint; assay type: cell-based; conditions: 50 ppm
Experimental: (§1) The following bacterial and fungal challenge tests were performed to ascertain whether low concentrations of 4-isothiazolin-3-one biocidal active compounds, pyrithione, coumarin or guanidine adjuvant are sufficient to prevent microbial contamination of final products when deliberately inoculated with spoilage microbes.
(§2) The tests were performed according to ASTM standard D2574-97 (Standard Test Method for Resistance of Emulsion Paints in the Container to Attack by Microorganisms, ASTM International, West Conshohocken, Pa.), with higher inoculation volumes and frequency. A standard water based interior paint was used as the test substrate. Sample sizes of 20 g test substrate were used and the test samples were prepared in a sterile 30 mL square Nalgene bottle.
The bacteria were grown on pH 5, 7, or 9 Trypticase Soy Agar (TSA) lawns. The bacteria were grown individually on TSA and harvested by using sterile buffered water. The bacterial lawns were washed off with 30 mL of sterile water and an equal volume of each individual cell suspension was withdrawn from each serum bottle to make a combined cell suspension. Combined bacterial suspension were about 10^7 cfu/mL, which provides about 10^6 cfu/mL in the sample.
(§3) The following microorganisms were used for inoculation of the tested samples:
(§4) For the bacterial challenge testing, each sample was inoculated with a combined bacterial test inoculum volume equivalent to 10% of the total initial sample volume for the initial inoculation, 5% of the total initial sample volume for the second inoculation and 2.5% of the total initial sample volume for the third inoculation. Inoculum volumes for the fungal challenge tests were 2%, 1% and 0.5% of the total initial sample volume, respectively. Samples were inoculated every 96 h.
(§5) Concentrations of biocidal active compounds and adjuvants refer to the final concentration in the test samples prior to the first inoculation.
(§6) The efficacy of the added agent in each sample was monitored by means of a streak plate test after 24 hours (all inoculations) and 72 hours of inoculation (first and second inoculation). At 72 hours of the third inoculation performed, a dilution plate count was performed in order to obtain a quantitative measurement of contamination (cfu/mL). A count of less than 10 colony forming units per mL ([…]) is considered to show no measurable contamination. For the streak plate tests, bacterial samples were streaked on Tryptic Soy Agar (TSA) and incubated for 48 hours at 30° C. before reading. Fungal samples were streaked on Potato Dextrose Agar (PDA) and incubated for 5 days at 25° C. before reading.
(§7) The streak plates were ranked from 0-5c according to the degree of microbial growth:
(§8) The challenge tests were performed as described above.

[2] = tested on: fungal test inoculum: Aspergillus niger, Penicillium funiculosum, Candida albicans; assay: Fungal challenge test (ASTM D2574-97, modified) in standard water based interior paint; assay type: cell-based; conditions: 50 ppm
Experimental: as §1, §2
Fungal lawns were grown on Potato Dextrose Agar (PDA) or Sabouraud Dextrose Agar (SAB). Individual fungal spore suspensions were harvested by adding 10 mL of sterile 0.05% Triton X to fungal lawns. The lawns were then gently agitated by rubbing a sterile swab on the lawn, being careful not to puncture the agar. The liquid was then aseptically transferred to a sterile bottle containing sterile glass beads. The top of the bottle was closed and the bottle shaken vigorously to break up any chunks in the suspension. The shaken spore suspension was decanted through sterile fibers into another sterile bottle. The decanted spore suspension was counted using a hemocytometer. Once the spore counts were determined, each suspension was diluted in order to obtain 10^6 spore/mL. Each diluted fungal suspension was poured into a sterile container.
as §3
as §4, with “Inoculum volumes for the fungal challenge tests were 2%, 1% and 0.5% of the total initial sample volume, respectively.” left out
as §5, §6, §7, §8

[3] = tested on: bacterial test inoculum (Acinetobacter calcoaceticus, Escherichia coli, Pseudomonas aeruginosa, Enterobacter cloacae); assay: Quick kill testing in pre-contaminated standard interior paint (dilution-plate counts); assay type: cell-based; conditions: Table 9, 50 ppm, 30° C.
Experimental: An additional test was performed to analyze how quickly the tested biocidal compositions will recover a sample from microbial spoilage. For each sample, 20 g of a pre-contaminated standard interior paint formulation serving as a test substrate was weighed into a sterile container. All samples were contaminated with the bacterial test inoculum described above (10% of the of the total initial sample volume).
A dilution-plate count was performed on the untreated sample (0 hour time point) and a biocidal composition added aseptically to each sample. Subsequent to this treatment, further dilution-plate counts were performed at fixed time intervals (time points are given in hours) on each sample, including an untreated negative control. All samples were incubated at 30° C.±2° C.
Concentrations in ppm refer to final concentrations of the biocidal compositions in the test samples. The relative amounts of active compounds and adjuvant in the tested biocidal compositions were as indicated below: […]

[4] = tested on: bacteria, fungi and yeast; conditions: cited from earlier work
[5] = neutral pH; cited from earlier work

| Compound | Dilution plate count, 3rd inoculation 72 h ([1]; inoculum 2.50%) | Streak plate rank, 3rd inoculation 24 h ([1]; inoculum 2.50%) | Streak plate rank, 2nd inoculation 72 h ([1]; inoculum 5%) | Streak plate rank, 1st inoculation 24 h ([1]; inoculum 10%) | Streak plate rank, 1st inoculation 72 h ([1]; inoculum 10%) | Dilution plate count, 3rd inoculation 72 h ([2]; inoculum 0.50%) | Streak plate rank, 3rd inoculation 24 h ([2]; inoculum 0.50%) | Streak plate rank, 2nd inoculation 72 h ([2]; inoculum 1%) | Streak plate rank, 1st inoculation 24 h ([2]; inoculum 2%) | Streak plate rank, 1st inoculation 72 h ([2]; inoculum 2%) | Dilution-plate count T4 ([3]; 4 hours after treatment) | Dilution-plate count T8 ([3]; 8 hours after treatment) | Dilution-plate count T24 ([3]; 24 hours after treatment) | amounts required for a reliable and quick biocidal activity [4] | solubility in water [5] [ppm] |
| --- | --- | --- | --- | --- | --- | --- | --- | --- | --- | --- | --- | --- | --- | --- | --- |
| O=c1[nH]sc2ccccc12 [BIT, 1,2-benzisothiazolin-3-one] | 4.2 × 10^7 cfu/mL | 5 (5 = greater than 45 cfu) | 5 (5 = greater than 45 cfu) | 5 (5 = greater than 45 cfu) | 4 (4 = 31-45 cfu) | 2.0 × 10^2 cfu/mL | 5 (5 = greater than 45 cfu) | 1 (1 = 1-5 Colony Forming Unit (cfu)) | 5 (5 = greater than 45 cfu) | 2 (2 = 6-15 cfu) | 1.15 × 10^7 | 3.4 × 10^6 | 9.4 × 10^5 | up to 500 ppm |  |
| Zinc pyrithione |  |  |  |  |  |  |  |  |  |  |  |  |  |  | 8 |
